From patent publication US20220326229A1, “ASSAY FOR REAL-TIME SIMULTANEOUS RECRUITMENT OF ARRESTIN ISOFORMS TO G PROTEIN-COUPLED RECEPTORS” (Purdue Research Foundation, priority 2021, published 2022)

Key:
δ opioid receptor (DOR) = molecular target: T1, δ opioid receptor (DOR) (Mus musculus, UniProt P32300); experiment: ClickArr assay: simultaneous recruitment of Barr1 (508 nm) and Barr2 (620 nm) to DOR in triply transfected HEK293 cells; format: cell-based
T1 construct: influenza signal peptide (N); linker […]; expressed in transfected cells; host or cells: HEK293
T1 sequence (P32300 with tags, fused parts or gaps): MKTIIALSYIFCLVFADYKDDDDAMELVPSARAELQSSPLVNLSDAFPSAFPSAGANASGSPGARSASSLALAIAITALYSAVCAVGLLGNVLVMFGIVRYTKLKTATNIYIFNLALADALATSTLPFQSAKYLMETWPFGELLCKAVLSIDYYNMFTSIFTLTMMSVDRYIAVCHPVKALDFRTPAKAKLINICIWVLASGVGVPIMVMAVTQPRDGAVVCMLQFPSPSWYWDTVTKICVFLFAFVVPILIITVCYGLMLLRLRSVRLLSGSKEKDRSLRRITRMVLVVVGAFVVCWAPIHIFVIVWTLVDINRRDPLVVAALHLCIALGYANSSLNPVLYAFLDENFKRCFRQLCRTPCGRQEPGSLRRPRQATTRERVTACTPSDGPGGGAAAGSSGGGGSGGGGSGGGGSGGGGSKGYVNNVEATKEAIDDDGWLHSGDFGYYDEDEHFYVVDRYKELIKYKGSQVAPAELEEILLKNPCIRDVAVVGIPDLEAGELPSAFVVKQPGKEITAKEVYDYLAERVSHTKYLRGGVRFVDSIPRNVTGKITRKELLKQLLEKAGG

[1] = molecular target: T2, dopamine D2 receptor (D2R) (Homo sapiens, UniProt P14416); format: cell-based; conditions: FIG. 7B; single replicate, pilot experiment
T2 construct: linker […]; expressed in transfected cells; host or cells: HEK293

D2R = D2R (Homo sapiens, UniProt P14416); conditions: cited from earlier work
[2] = molecular target: T3, D2R-GSSGGGGSGGGGSGGGGSGGGG-CBGct(395-542) (human); experiment: split click beetle luciferase complementation (ClickArr), triply transfected cells, UNC9994 dose-response, single replicate
T3 construct: also called D2R-CBGct; dopamine D2 receptor
T3 chain: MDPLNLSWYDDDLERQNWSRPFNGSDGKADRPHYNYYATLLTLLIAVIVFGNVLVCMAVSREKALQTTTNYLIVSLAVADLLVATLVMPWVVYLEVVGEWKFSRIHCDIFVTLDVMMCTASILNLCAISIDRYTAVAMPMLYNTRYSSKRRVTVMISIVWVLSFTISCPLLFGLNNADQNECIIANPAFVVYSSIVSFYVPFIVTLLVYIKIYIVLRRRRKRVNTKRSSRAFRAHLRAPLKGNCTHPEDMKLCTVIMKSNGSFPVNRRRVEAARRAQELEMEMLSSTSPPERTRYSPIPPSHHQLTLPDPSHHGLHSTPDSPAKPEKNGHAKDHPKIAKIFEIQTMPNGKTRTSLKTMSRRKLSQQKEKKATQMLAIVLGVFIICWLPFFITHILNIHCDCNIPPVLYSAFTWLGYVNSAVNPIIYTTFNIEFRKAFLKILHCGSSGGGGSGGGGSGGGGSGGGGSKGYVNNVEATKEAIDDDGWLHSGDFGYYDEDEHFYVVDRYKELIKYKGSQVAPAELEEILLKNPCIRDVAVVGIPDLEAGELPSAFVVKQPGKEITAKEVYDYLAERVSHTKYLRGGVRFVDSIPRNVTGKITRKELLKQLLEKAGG

[3] = molecular target: T4, Signal peptide + FLAG tag-KOR-GSSGGGGSGGGGSGGGGSGGGG-CBGct(395-542) (mouse); experiment: split click beetle luciferase complementation (ClickArr), triply transfected cells, dynorphin17 dose-response, single replicate
T4 construct: also called kappa opioid receptor-CBGct; kappa opioid receptor
T4 chain: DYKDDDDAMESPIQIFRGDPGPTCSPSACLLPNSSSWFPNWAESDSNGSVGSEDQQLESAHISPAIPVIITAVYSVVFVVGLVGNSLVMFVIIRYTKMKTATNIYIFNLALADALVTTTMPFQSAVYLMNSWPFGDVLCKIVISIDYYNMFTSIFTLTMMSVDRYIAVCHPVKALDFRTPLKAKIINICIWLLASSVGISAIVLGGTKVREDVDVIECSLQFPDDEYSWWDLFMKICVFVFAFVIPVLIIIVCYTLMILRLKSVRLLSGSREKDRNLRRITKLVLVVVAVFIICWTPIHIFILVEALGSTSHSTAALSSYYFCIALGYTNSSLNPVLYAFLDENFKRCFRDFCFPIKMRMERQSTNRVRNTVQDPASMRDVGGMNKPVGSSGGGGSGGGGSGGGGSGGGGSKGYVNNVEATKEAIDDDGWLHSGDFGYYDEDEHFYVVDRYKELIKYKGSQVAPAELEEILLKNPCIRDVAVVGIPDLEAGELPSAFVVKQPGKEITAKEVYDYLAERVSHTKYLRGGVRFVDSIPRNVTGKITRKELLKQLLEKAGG

[4] = molecular target: T5, 3xHA-AGTR1(2-360)-GSSGGGGSGGGGSGGGGSGGGG-CBGct(395-542) (human); experiment: split click beetle luciferase complementation (ClickArr), triply transfected cells, angiotensin II dose-response, single replicate
T5 construct: also called AGTR1-CBGct; angiotensin type 1 receptor
T5 chain: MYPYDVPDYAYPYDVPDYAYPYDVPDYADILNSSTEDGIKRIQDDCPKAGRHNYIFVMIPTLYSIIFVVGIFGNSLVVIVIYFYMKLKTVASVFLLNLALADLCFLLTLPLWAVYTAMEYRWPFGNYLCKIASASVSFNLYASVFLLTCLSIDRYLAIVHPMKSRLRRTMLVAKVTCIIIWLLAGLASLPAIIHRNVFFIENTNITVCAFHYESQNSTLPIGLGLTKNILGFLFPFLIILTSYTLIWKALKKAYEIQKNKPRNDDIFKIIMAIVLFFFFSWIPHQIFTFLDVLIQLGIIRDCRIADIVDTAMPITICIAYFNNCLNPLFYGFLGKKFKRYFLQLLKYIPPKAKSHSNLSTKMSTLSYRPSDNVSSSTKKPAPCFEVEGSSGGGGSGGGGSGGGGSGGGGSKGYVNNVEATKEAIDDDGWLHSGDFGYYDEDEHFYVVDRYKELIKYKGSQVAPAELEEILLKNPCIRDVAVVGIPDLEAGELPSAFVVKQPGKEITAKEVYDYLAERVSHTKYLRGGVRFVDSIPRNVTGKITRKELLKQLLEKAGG

[5] = molecular target: T6, Signal peptide + FLAG tag-DOR-GSSGGGGSGGGGSGGGGSGGGG-CBGct(395-542) (mouse (Mus musculus)); experiment: split click beetle luciferase complementation (ClickArr), kinetic read at 508 nm, triply transfected HEK293 cells, 32 µM leu-enkephalin or TAN67
T6 construct: also called optimized DOR construct; DOR-CBGct
T6 chain: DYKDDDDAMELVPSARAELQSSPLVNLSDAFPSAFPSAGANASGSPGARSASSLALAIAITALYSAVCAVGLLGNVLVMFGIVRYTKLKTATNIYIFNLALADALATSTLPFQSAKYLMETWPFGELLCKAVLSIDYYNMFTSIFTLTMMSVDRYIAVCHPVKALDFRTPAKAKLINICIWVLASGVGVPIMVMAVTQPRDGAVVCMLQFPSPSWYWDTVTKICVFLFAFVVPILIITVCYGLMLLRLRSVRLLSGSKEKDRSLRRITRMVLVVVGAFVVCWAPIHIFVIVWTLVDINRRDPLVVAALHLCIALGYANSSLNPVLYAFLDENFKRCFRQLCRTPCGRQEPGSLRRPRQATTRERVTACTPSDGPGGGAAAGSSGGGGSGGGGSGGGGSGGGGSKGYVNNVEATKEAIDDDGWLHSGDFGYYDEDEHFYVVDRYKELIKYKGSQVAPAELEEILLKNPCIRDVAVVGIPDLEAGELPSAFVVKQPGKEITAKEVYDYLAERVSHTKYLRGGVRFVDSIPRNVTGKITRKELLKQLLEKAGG

Molecule: Br.Br.CN1CC[C@@]2(c3cccc(O)c3)Cc3nc4ccccc4cc3C[C@@H]2C1 (racemic) [TAN67, (R*,S*)-(±)-2-Methyl-4aa-(3-hydroxyphenyl)-1,2,3,4,4a,5,12,12aa-octahydroquinolino[2,3,3-g]isoquinoline dihydrobromide]
- Δ% efficacy Barr1-Barr2 compared to Leu-Enk (δ opioid receptor (DOR); difference in maximum change in signal between arrestin isoforms, as a percentage of Leu-Enk, n=5-6 biological replicates, FIG. 5C): significant difference in efficacy
- Kinetics of Barr1 vs Barr2 recruitment (normalized β-arrestin signal over time) (δ opioid receptor (DOR); saturating concentration (32 μM), n=6 replicates, FIGS. 6A, 6B): Recruitment of Barr1 is much slower than Barr2

Molecule: Cl.Clc1cccc(C2CCN(CCCOc3ccc4scnc4c3)CC2)c1Cl [UNC9994, 5-(3-(4-(2,3-dichlorophenyl)piperidin-1-yl)propoxy)benzo[d]thiazole hydrochloride]
- Potency of β-arrestin curves relative to published value [1]: as potent or more potent than published values
- Response: fold change in dopamine receptor:β-arrestin signal [1]: showed a response
- EC50 (D2R; Allen et al., PNAS 108(45): 18488-18493 (2011), read-out: Published potency value): 448 nM
- log10 of published potency value (D2R; log10 (M) of 448 nM, Allen et al. 2011): ~−6.3

B1: CBGnt(1-415)-SGGGGSGGGGSGGGGSGGGGS-Barr1 (other)
chain: MVKREKNVIYGPEPLHPLEDLTAGEMLFRALRKHSHLPQALVDVVGDESLSYKEFFEATVLLAQSLHNCGYKMNDVVSICAENNTRFFIPVIAAWYIGMIVAPVNESYIPDELCKVMGISKPQIVFTTKNILNKVLEVQSRTNFIKRIIILDTVENIHGCESLPNFISRYSDGNIANFKPLHFDPVEQVAAILCSSGTTGLPKGVMQTHQNICVRLIHALDPRVGTQLIPGVTVLVYLPFFHAFGFSITLGYFMVGLRVIMFRRFDQEAFLKAIQDYEVRSVINVPSVILFLSKSPLVDKYDLSSLRELCCGAAPLAKEVAEVAAKRLNLPGIRCGFGLTESTSANIHSLGDEFKSGSLGRVTPLMAAKIADRETGKALGPNQVGELCIKGPMVSKGYVNNVEATKEAIDDDGWLSGGGGSGGGGSGGGGSGGGGSGDKGTRVFKKASPNGKLTVYLGKRDFVDHIDLVDPVDGVVLVDPEYLKERRVYVTLTCAFRYGREDLDVLGLTFRKDLFVANVQSFPPAPEDKKPLTRLQERLIKKLGEHAYPFTFEIPPNLPCSVTLQPGPEDTGKACGVDYEVKAFCAENLEEKIHKRNSVRLVIRKVQYAPERPGPQPTAETTRQFLMSDKPLHLEASLDKEIYYHGEPISVNVHVTNNTNKTVKKIKISVRQYADICLFNTAQYKCPVAMEEADDTVAPSSTFCKVYTLTPFLANNREKRGLALDGKLKHEDTNLASSTLLREGANREILGIIVSYKVKVKLVVSRGGDVAVELPFTLMHPKPKEEPPHREVPENETPVDTNLIELDTNDDDIVFEDFARQRLKGMKDDKEEEEDGTGSPQLNNR
notes: also called optimized Barr1 construct; CBGnt-Barr1
- binding result [2]: binds
- binding result [3]: binds
- binding result [4]: binds
- binding result [5]: binds
